Measurements from article PMC5553193 (Journal of the American Chemical Society, 2015).
Numbering of substitutions follows the chain as printed. Peptide text beside a SMILES is read from it. * marks the point of attachment. X1 = O=C(C=NOCCO[C@H]1O[C@H](CO)[C@@H](O)[C@H](O)[C@@H]1O)*

Tests used:
DC-SIGN [1] = target: T1, DC-SIGN (Homo sapiens, UniProt Q9NNX6); test: ESI-MS binding assay with DC-SIGN
T1 sequence (Q9NNX6 1-404): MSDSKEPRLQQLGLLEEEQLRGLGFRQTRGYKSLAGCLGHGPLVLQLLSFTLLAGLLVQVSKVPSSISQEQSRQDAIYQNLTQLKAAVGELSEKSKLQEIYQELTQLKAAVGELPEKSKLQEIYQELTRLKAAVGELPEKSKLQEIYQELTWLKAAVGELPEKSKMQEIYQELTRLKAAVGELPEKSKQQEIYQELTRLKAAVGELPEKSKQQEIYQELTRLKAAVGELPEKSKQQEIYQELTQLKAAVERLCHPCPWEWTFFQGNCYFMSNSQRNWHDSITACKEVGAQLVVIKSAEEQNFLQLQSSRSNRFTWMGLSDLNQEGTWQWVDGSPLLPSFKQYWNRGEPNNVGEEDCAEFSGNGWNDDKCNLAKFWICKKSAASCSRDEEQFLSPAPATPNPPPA

ConA [2] = target: T2, ConA (Canavalia ensiformis, UniProt P02866); format: binding
LcH = target: T3, LcH (Lens culinaris, UniProt P02870); test: ITC with LcH; format: binding
T3 sequence (P02870 31-211 limits assumed): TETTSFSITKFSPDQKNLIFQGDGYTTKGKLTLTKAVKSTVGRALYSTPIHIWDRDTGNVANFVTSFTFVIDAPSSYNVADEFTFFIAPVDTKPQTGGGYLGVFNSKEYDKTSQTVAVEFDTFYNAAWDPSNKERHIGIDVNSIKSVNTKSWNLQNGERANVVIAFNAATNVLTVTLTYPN
T3 sequence (P02870 218-269 limits assumed): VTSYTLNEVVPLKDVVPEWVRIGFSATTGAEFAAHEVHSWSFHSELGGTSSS

PSA = target: T4, PSA (Pisum sativum, UniProt P02867); test: ITC with PSA; format: binding
T4 sequence (P02867 31-211 limits assumed): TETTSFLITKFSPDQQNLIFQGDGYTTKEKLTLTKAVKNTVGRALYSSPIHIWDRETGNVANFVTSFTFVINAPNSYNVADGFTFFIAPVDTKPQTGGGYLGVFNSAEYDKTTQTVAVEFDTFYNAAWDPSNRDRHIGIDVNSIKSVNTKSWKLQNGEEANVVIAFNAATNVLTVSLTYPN
T4 sequence (P02867 218-269 limits assumed): T3 sequence (P02870 218-269 limits assumed) with N7S, E8D, P11S, F32Y, H38L, G47S

ConA [3] = target: T2, ConA; conditions: read-out: KD with ConA; literature value; cited from earlier work
DC-SIGN [4] = target: T1, DC-SIGN; conditions: read-out: KD with DC-SIGN; literature value; cited from earlier work

NC(=O)[C@H](CC(=O)O)NC(=O)[C@H](Cc1ccc(O)cc1)NC(=O)[C@H](Cc1c[nH]c2ccccc12)NC(=O)C=NOCCO[C@H]1O[C@H](CO)[C@@H](O)[C@H](O)[C@@H]1O [L20]
enhanced affinity for DC-SIGN (DC-SIGN [1]): enhanced affinity

CC[C@H](C)[C@H](NC(=O)[C@H](CC(N)=O)NC(=O)[C@H](CC(=O)O)NC(=O)[C@H](Cc1ccccc1)NC(=O)[C@H](CC(C)C)NC(=O)[C@H](CC(=O)O)NC(=O)[C@H](Cc1ccc(O)cc1)NC(=O)[C@H](Cc1c[nH]c2ccccc12)NC(=O)C=NOCCO[C@H]1O[C@H](CO)[C@@H](O)[C@H](O)[C@@H]1O)C(=O)N[C@@H](CC(N)=O)C(=O)N[C@@H](CO)C(N)=O [L30, Man-WYDLFDNINS] (X1-WYDLFDNINS-NH2; N-terminus assumed)
fold enhancement in affinity (lower KD) over MeMan (ConA [2]): 33 fold

CC(C)C[C@H](NC(=O)[C@H](CC(=O)O)NC(=O)[C@H](Cc1ccc(O)cc1)NC(=O)[C@H](Cc1c[nH]c2ccccc12)NC(=O)C=NOCCO[C@H]1O[C@H](CO)[C@@H](O)[C@H](O)[C@@H]1O)C(=O)N[C@@H](Cc1ccccc1)C(N)=O [L37, Man-WYDLF] (X1-WYDLF-NH2; N-terminus assumed)
fold enhancement of binding of monosaccharide moiety by peptide fragment (LcH): 2 fold | fold enhancement of binding of monosaccharide moiety by peptide fragment (ConA [2]; ITC): 35 fold | fold enhancement of binding of monosaccharide moiety by peptide fragment (PSA): 2 fold

OC[C@H]1O[C@H](OC[C@H]2O[C@H](O)[C@@H](O)[C@@H](O[C@H]3O[C@H](CO)[C@@H](O)[C@H](O)[C@@H]3O)[C@@H]2O)[C@@H](O)[C@@H](O)[C@@H]1O [Man3, α-Man-(1→3)-[α-Man-(1→6)]-α-Man]
Kd (ConA [3]): 2.6 µM | Kd (DC-SIGN [4]): 590 µM
